Measured values reported in ChEMBL document CHEMBL3352364 (Bioorg Med Chem Lett, 2014).

What was measured:
[1] = species: Rattus norvegicus; settings: in vivo, ip
Description: Toxicity in ip dosed Sprague-Dawley rat assessed as catalepsy by crossed-legs position test

[2] = species: Rattus norvegicus; settings: in vivo, ip; remark: listed apart in the source
Description: Toxicity in ip dosed Sprague-Dawley rat assessed as catalepsy by Bar test

| SMILES | MED [1] | MED [2] |
| --- | --- | --- |
| OC1(c2ccc(Cl)cc2)CC2CCC(C1)N2CCCSc1cccc(F)c1 (centres undefined) | 12.7 mg/kg | 12.7 mg/kg |
| OC1(c2ccc(Cl)cc2)CC2CCC(C1)N2CCCSc1ccc(F)cc1 (centres undefined) | 0.964 mg/kg | 0.578 mg/kg |
